# Measurements published in the supplement of paper PMC10307832.
# Experiments:
# Experiment in all cases: relative viability (nuclei count vs DMSO), 5 days (fraction); higher = more cells survive
# RU-SKI 43 + Palbociclib = compound: CC[C@@H](C)CNCC(=O)N1CCC2=C([C@@H]1COC3=CC=CC(=C3)C)C=CS2 [RU-SKI 43] + CC(=O)c1c(C)c2cnc(Nc3ccc(N4CCNCC4)cn3)nc2n(C2CCCC2)c1=O [Palbociclib] (partner 0.5 µM)
# How it was run: (§1)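 Five library-drug doses in √10 steps were combined with a fixed anchor-drug dose, or a single drug was given alone, by pin tool to lung cancer cell lines in 1536-well plates the day after seeding. Nuclei were stained and counted after 5 days. Relative viability is the nuclei count in treated wells over that in vehicle wells, taken as the median of duplicate plates.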
# Irinotecan + Trametinib = compound: CCc1c2c(nc3ccc(OC(=O)N4CCC(N5CCCCC5)CC4)cc13)-c1cc3c(c(=O)n1C2)COC(=O)[C@]3(O)CC [Irinotecan] + CC(=O)Nc1cccc(-n2c(=O)n(C3CC3)c(=O)c3c(Nc4ccc(I)cc4F)n(C)c(=O)c(C)c32)c1 [Trametinib] (partner 0.02 µM)
# How it was run: as §1
# Irinotecan + Alpelisib = compound: CCc1c2c(nc3ccc(OC(=O)N4CCC(N5CCCCC5)CC4)cc13)-c1cc3c(c(=O)n1C2)COC(=O)[C@]3(O)CC [Irinotecan] + Cc1nc(NC(=O)N2CCC[C@H]2C(N)=O)sc1-c1ccnc(C(C)(C)C(F)(F)F)c1 [Alpelisib] (partner 2 µM)
# How it was run: as §1
# MK-8033 + Luminespib = compound: Cn1cc(-c2cnc3ccc4ccc(CS(=O)(=O)NCc5ccccn5)cc4c(=O)c3c2)cn1 [MK-8033] + CCNC(=O)c1noc(-c2cc(C(C)C)c(O)cc2O)c1-c1ccc(CN2CCOCC2)cc1 [Luminespib] (partner 0.01 µM)
# How it was run: as §1
Cell Line,relative viability (RU-SKI 43 + Palbociclib; first compound 0.1 µM),relative viability (RU-SKI 43 + Palbociclib; first compound 0.3162 µM),relative viability (RU-SKI 43 + Palbociclib; first compound 1 µM),relative viability (RU-SKI 43 + Palbociclib; first compound 3.162 µM),relative viability (RU-SKI 43 + Palbociclib; first compound 10 µM),relative viability (Irinotecan + Trametinib; first compound 0.6325 µM),relative viability (Irinotecan + Trametinib; first compound 2 µM),relative viability (Irinotecan + Trametinib; first compound 6.325 µM),relative viability (Irinotecan + Trametinib; first compound 20 µM),relative viability (Irinotecan + Alpelisib; first compound 0.6325 µM),relative viability (Irinotecan + Alpelisib; first compound 2 µM),relative viability (Irinotecan + Alpelisib; first compound 6.325 µM),relative viability (Irinotecan + Alpelisib; first compound 20 µM),relative viability (MK-8033 + Luminespib; first compound 0.02 µM),relative viability (MK-8033 + Luminespib; first compound 0.06325 µM),relative viability (MK-8033 + Luminespib; first compound 0.6325 µM),relative viability (MK-8033 + Luminespib; first compound 2 µM),relative viability (MK-8033 + Luminespib; first compound 0.2 µM)
NCI-H23,0.464,0.515,0.548,0.568,0.47,0.35,0.289,0.187,0.191,0.519,0.421,0.246,0.243,0.245,0.216,0.204,0.198,–
EPLC-272H,0.315,0.254,0.323,0.286,0.307,–,0.323,0.224,0.203,0.44,0.203,0.183,0.267,0.214,0.339,0.218,0.475,0.282
SK-MES-1,0.292,0.304,0.34,0.344,0.26,0.528,0.557,0.311,0.173,0.997,0.877,0.426,0.267,0.628,0.728,0.908,0.823,0.722
NCI-H2126,0.355,0.37,0.38,0.355,0.353,0.546,0.347,0.273,0.304,–,0.384,0.289,0.312,0.905,0.757,0.836,0.872,0.817
NCI-H2087,0.253,0.215,0.288,0.238,0.19,0.0883,0.151,0.137,0.196,0.437,0.22,0.215,0.211,0.119,0.174,0.242,0.148,0.148
EMC-BAC-2,0.523,0.477,0.552,0.505,0.518,0.867,0.766,0.474,0.201,0.483,0.28,0.165,0.181,1.2,1.07,1.16,1.12,1.12
NCI-H647,0.472,0.371,0.382,0.471,0.287,0.447,0.414,0.151,0.0916,0.816,0.435,0.197,0.202,0.119,0.178,0.151,0.154,0.213
NCI-H520,0.247,0.241,0.259,0.237,0.148,0.52,0.397,0.264,0.172,0.751,0.733,0.282,0.203,0.22,0.207,0.211,0.219,0.226
LC-2-ad,0.509,0.579,0.532,0.514,0.445,0.657,0.365,0.275,0.253,0.634,0.283,0.155,0.17,1.04,0.97,1.08,0.878,–
EKVX,0.332,0.319,0.336,0.379,0.353,–,0.35,0.279,0.15,1.03,0.766,0.33,0.205,0.888,0.905,0.889,0.842,0.814
NCI-H2228,0.735,1.05,0.892,0.535,0.737,0.279,0.611,0.402,0.437,0.791,0.598,0.431,0.408,0.178,0.0977,0.161,0.208,0.163
NCI-H322M,0.459,0.483,0.44,0.524,0.457,0.508,0.616,0.481,0.304,0.576,0.37,0.282,0.395,0.85,0.85,0.873,0.842,0.78
NCI-H358,0.129,0.152,0.15,0.128,0.128,0.106,0.131,0.125,0.071,0.628,0.561,0.311,0.248,0.417,0.236,0.296,0.213,0.235
NCI-H1395,0.638,0.685,0.714,0.624,0.573,–,0.812,0.549,0.375,–,0.707,0.52,0.246,0.764,0.559,0.735,0.584,0.526
NCI-H1993,0.611,0.727,0.697,0.748,0.613,–,0.5,0.527,0.517,0.617,0.643,0.63,0.68,0.733,0.838,0.964,0.73,0.827
CAL-12T,0.413,0.474,0.365,0.457,0.391,0.309,0.292,0.299,0.274,1.08,1.19,0.422,0.309,0.263,0.305,0.319,0.53,0.518
COR-L23,0.288,0.241,0.311,0.357,0.277,0.307,0.41,0.23,0.0821,0.324,0.238,0.158,0.119,0.696,0.595,0.661,0.606,0.722
NCI-H2347,0.434,0.329,0.441,0.403,0.394,0.271,0.382,0.351,0.415,0.858,0.763,0.482,0.464,0.362,0.277,0.408,0.556,0.473
LU99A,0.376,0.442,0.53,0.399,0.387,0.184,0.182,0.164,0.156,0.219,0.23,0.225,0.219,0.24,0.272,0.177,0.241,0.258
COR-L 105,0.39,0.367,0.433,0.395,0.363,0.432,0.425,0.474,0.401,1.08,1.18,0.648,0.444,0.552,0.79,0.616,0.677,0.774
PC-3 [JPC-3],0.534,0.479,0.561,0.558,0.343,0.671,0.811,0.534,0.358,0.814,0.413,0.319,0.305,0.728,0.618,0.663,0.713,0.713
NCI-H2009,0.181,0.214,0.219,0.229,0.194,0.282,0.34,0.213,0.0843,0.838,0.591,0.26,0.135,0.987,0.921,0.999,1,0.978
HARA,0.233,0.205,0.281,0.28,0.233,0.643,0.373,0.245,0.145,0.557,0.211,0.215,0.177,0.675,0.621,1.03,0.557,0.681
NCI-H1792,0.692,0.764,0.685,0.698,0.662,0.356,0.532,0.225,0.205,0.711,0.673,0.329,0.11,0.383,0.34,0.217,0.273,0.442
HCC-827,0.474,0.414,0.56,0.498,0.427,0.512,0.383,0.202,0.203,0.522,0.252,0.203,0.233,0.43,–,0.59,1.07,0.591
LXF-289,0.605,0.666,0.615,0.61,0.607,0.653,0.328,0.268,0.197,0.994,0.504,0.273,0.214,0.66,0.654,0.665,0.643,0.591
NCI-H460,0.222,0.165,0.183,0.199,0.128,0.086,0.159,0.089,0.0313,0.461,0.339,0.0811,0.0821,0.0295,0.038,0.0415,0.0328,0.0269
NCI-H2023,0.383,0.385,0.444,0.451,0.311,0.589,0.646,0.261,0.0947,0.607,0.468,0.202,0.0912,0.758,0.652,0.693,0.634,0.652
PC-14,0.575,0.668,0.798,0.451,0.401,0.744,0.436,0.164,0.137,0.925,0.9,0.465,0.184,0.125,0.128,0.174,0.224,0.131
NCI-H1734,0.351,0.323,0.358,0.325,0.298,–,0.261,0.188,0.188,0.625,0.331,0.143,0.233,0.173,0.177,0.182,0.17,0.176
